Data as given in patent publication US20040072753A1, “Peptides for use in the treatment of alzheimer's disease” (priority 2000, published 2004).
Where a SMILES comes first, the peptide text is derived from it. Where no end group is shown, it is not given here. [ ]: non-standard residue; d: D form. pS = N[C@@H](COP(=O)(O)O)C(=O)O

Tests used:
biotinylated Aβ 25-35 = biotinylated Aβ 25-35 (Homo sapiens, UniProt P05067); test: Binding of biotinylated Aβ 25-35 to CAβBP or EAβBP coated plates (ELISA); conditions: biotinylated peptide 200 pM
Procedure: (§1) Biotinylated Aβ1-42, Aβ12-28 and Aβ 25-35 (from SEQ ID NO. 2) were prepared using a LinKit-Biolink kit (ISL, Paignton, UK). ELISA plates were coated with CAβBP (catalase residues 400409) or EAβBD (ERAB residues 99-108) (1 μg ml^−1) in carbonate buffer and unoccupied sites blocked with 5% (w/v) dried milk. Biotinylated peptides (200 pM) were incubated alone, with control peptides or with unlabelled Aβ peptides in PBS (containing 0.1% BSA and 0.05% Tween-20) at 37° C. for 4 hours. After washing to remove unbound material, an alkaline phosphatase polymer-streptavidin conjugate (Sigma, Dorset, UK) was added and incubated at 37° C. for 2 hours. After washing to remove unbound material, p-nitrophenylphosphate substrate was added and absorbance at 405 nm determined. Affinity constants were determined by incubating catalase or CAβBP coated plates with biotinylated peptides (200 pM) plus Aβ peptides over a range of concentrations (0-100 nM) and detection of bound peptides was carried out by ELISA.

[1] = system: SP2/0-Ag-14 mouse myeloma cells; test: Cytotoxicity of Aβ peptides, trypan blue dye exclusion; type: cell-based; conditions: test peptides 20 μM, 24 hours
Procedure: SP2/0-Ag-14 mouse myeloma cells were maintained in RPMI 1640 medium containing 10% fetal calf serum at 37° C. in a 5% CO2 humidified atmosphere. For cytotoxicity experiments 2×1 05 cells were plated in 24 well dishes in 1 ml PBS containing 0.1% BSA and test peptides (20 μM) for 24 hours. Cell viability was determined by trypan blue dye exclusion with at least 100 cells counted per well (Milton, Biochem. J. 344: 293-296 (1999)).

biotinylated Aβ 1-42 = biotinylated Aβ 1-42 (Homo sapiens, UniProt P05067); test: Binding of biotinylated Aβ 1-42 to CAβBP or EAβBP coated plates (ELISA, Scatchard); conditions: biotinylated peptide 200 pM
biotinylated Aβ 1-42, sequence (P05067 672-713 limits assumed): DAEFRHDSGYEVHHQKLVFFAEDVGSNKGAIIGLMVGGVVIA
Procedure: After washing to remove unbound material, an alkaline phosphatase polymer-streptavidin conjugate (Sigma, Dorset, UK) was added and incubated at 37° C. for 2 hours. After washing to remove unbound material, p-nitrophenylphosphate substrate was added and absorbance at 405 nm determined.

[2] = target: T1, catalase EC 1.11.1.6 from human erythrocytes (Homo sapiens, UniProt P04040); test: Catalase enzyme activity, inhibition by Aβ peptides; type: biochemical; conditions: test peptides 2 μM
T1 construct: catalase EC 1.11.1.6 from human erythrocytes (Sigma, Dorset, UK) was used; purchased Sigma, Dorset, UK; host or cells: human erythrocytes
T1 sequence (P04040 2-527 limits assumed): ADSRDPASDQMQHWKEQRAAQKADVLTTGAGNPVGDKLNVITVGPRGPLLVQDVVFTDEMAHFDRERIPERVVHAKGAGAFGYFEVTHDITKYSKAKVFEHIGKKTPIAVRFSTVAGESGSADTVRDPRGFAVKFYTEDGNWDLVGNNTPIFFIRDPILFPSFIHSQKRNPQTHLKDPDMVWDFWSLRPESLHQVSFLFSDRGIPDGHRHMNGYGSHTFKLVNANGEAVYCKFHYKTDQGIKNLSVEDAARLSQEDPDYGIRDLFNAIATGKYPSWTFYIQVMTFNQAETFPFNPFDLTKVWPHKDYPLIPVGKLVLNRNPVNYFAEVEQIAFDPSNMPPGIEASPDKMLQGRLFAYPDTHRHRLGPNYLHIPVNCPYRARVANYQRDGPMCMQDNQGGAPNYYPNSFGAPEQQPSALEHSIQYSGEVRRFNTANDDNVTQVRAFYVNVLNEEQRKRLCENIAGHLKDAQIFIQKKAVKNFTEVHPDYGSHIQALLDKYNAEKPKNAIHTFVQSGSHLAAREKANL
Procedure: For catalase activity catalase EC 1.11.1.6 from human erythrocytes (Sigma, Dorset, UK) was used for all incubation experiments. Activity of Catalase (5kU I^−1) incubated with test peptides (2 μM) was determined after incubation in 60 mM sodium-potassium phosphate buffer at 37° C. in a total volume of 100 μl. After incubation catalase activity was determined by mixing 50 μl sample with 50 μl substrate (6.5 μmol H2O2 in phosphate buffer) for 60 secs, adding 100 μl of 32.4 mM ammonium molybdate and measurement of absorbance change at 405 nm. Catalase activity was calculated from a standard curve (0-10OkU I^−1) using purified human catalase of known activity (Milton, Biochem. J. 344: 293-296 (1999)).

biotinylated Aβ 12-28 = biotinylated Aβ 12-28 (Homo sapiens, UniProt P05067); test: Binding of biotinylated Aβ 12-28 to CAβBP or EAβBP coated plates (ELISA); conditions: biotinylated peptide 200 pM
Procedure: as §1

Human NT-2 neurons [3] = test: Cytotoxicity assay, MTT reduction in human NT-2 neurons; type: cell-based; conditions: for effect on MTT utilisation: 24 h incubation
Procedure: In order to assess the effects of Aβ phosphorylation on the cytotoxic properties of Aβ peptides, a series of Aβ 17-35 derivatives were synthesised. The 17-35 region of Aβ contains the serine residue (serine 26) which is proposed to be phosphorylated by p34-cdc2, and also contains the ERAB binding (17-20) and cytotoxic domains (31-35) thought to play roles in Aβ cytotoxicity. The peptides were tested in a cytotoxicity assay as follows. Human NT-2 (NTera2/D1) precursor cells were propagated in DMEM/F12 medium supplemented with retinoic acid for 5-6 weeks prior to harvesting and replating in the presence of mitotic inhibitors, to generate post-mitotic Human NT-2 neurons. For cytotoxicity experiments, 5×10^3 cells/100 μl, medium were plated in Poly-D-lysine coated 96 well plates. Test peptides (20 μM) were added directly to culture medium prior to incubation for 24 h. Cell viability was determined by measurement of MTT (3-(4,5-dimethylthiazol-2-yl)-2,5-diphenyl tetrazolium bromide) reduction (Shearman, Methods Enzymol. 309: 716-723 (1999)). After incubation with peptides MTT (10 μl: 12 mM stock) was added and cells incubated for a further 4 hours. Cell lysis buffer [100 μl/well; 20% (v/v) SDS, 50% (v/v) N,N-dimethylformamide, pH 4.7] was added and, after repeated pipetting to lyse cells, calorimetric determination of MTT formazan product formation was determined by measuring the absorbance change at 540 nm. Control levels in the absence of peptide were taken as 100%, with the absorbance in the absence of cells taken as 0%.

Human NT-2 neurons [4] = test: Immunoassay of ir-pSAβ and ir-Aβ in extracts of NT-2 neurons exposed to Aβ 17-35 derivatives; type: cell-based; conditions: for levels of immunoreactive Aβ (ir-Aβ) in exposed cells: cell extracts; for ir-pSAβ in extracts of exposed cells: versus control cells
Procedure: To establish whether Aβ is phosphorylated in the Alzheimer's brain, Alzheimer disease brain sections were obtained from Novagen Inc (Madison, Wis., USA. Cat No: 70298-3; Lot No: A301036). Sections were deparaffinised and extracted in DEA buffer supplemented with 0.1 mM sodium vanadate. Extracts from NT-2 neurons were also prepared using the same buffer. Using a polyclonal anti-AB 15-30 antiserum plus Protein-A agarose, the Aβ was immunoprecipitated. The resultant extracts were further purified using a Sep-Pak C18 extraction step. Columns were pre-wetted with methanol and 0.5M acetic acid and the samples were applied in 20% acetonitrile in 0.1% TFA. […] After drying under a stream of nitrogen, samples were resuspended in appropriate buffer. For SDS-PAGE analysis, samples were resuspended in gel loading buffer and run on a 15% acrylamide gel. After immunoblotting onto nitrocellulose membranes, the blots were stained with anti-Aβ, anti-phosphoserine, anti-phosphotyrosine or anti-phosphothreonine antibodies. Bands were visualized with anti-mouse or anti-rabbit IgG-HRP conjugates and TMB membrane substrate. […] ELISA plates were coated with anti-phosphoserine antiserum for pSAβ determination and blocked with 5% dried milk. Samples or synthetic Aβ standards (Aβ 17-35 pS) were applied in PBS containing 0.1% BSA plus 0.05% Tween 20. Monoclonal antibody ALI-01 was added and incubated for 2 hrs. After washing to remove unbound material, ir-pSAβ was detected using an anti-rabbit IgG-HRP conjugate and TMB substrate. A similar assay in which the pS antibody was replaced with a polyclonal anti-Aβ antibody was used to measure Aβ levels.

cdc2/cyclin B1 = target: T2, cdc2/cyclin B1 (Homo sapiens, UniProt P06493+P14635); test: cdc2/cyclin B1 phosphorylation of biotinylated histone H1 substrate peptide; type: biochemical
T2 construct: purchased Promega, UK
T2 sequence (P06493 whole entry): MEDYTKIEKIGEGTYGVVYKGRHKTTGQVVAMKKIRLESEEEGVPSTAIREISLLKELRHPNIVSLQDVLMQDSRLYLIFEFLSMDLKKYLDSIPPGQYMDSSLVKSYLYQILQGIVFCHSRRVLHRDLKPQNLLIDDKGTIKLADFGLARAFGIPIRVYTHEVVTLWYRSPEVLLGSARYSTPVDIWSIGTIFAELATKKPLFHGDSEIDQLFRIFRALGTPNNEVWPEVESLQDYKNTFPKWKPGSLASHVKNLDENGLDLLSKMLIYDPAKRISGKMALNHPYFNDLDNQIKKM
T2 sequence (P14635 whole entry): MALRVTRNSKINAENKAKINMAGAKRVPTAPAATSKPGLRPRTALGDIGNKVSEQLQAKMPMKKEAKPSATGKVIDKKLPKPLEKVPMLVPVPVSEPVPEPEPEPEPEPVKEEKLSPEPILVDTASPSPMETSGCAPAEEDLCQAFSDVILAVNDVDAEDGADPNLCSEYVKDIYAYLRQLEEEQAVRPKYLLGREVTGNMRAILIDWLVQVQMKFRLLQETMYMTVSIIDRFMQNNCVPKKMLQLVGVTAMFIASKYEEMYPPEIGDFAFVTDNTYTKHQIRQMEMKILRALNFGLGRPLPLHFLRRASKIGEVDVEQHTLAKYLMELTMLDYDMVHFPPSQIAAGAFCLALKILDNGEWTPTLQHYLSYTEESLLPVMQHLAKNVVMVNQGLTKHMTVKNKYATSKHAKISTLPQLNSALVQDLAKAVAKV
Source text: (§2) The membrane was washed four times in 2 M NaCl, followed by four times in 2 M NaCl containing 1% (v/v) H3PO4 and finally twice in deionized H2O to remove unbound material.
Since Aβ binds to both the cdc2 and cyclin B1 components of the active enzyme it is possible that Aβ modulates the activity of the kinase.

recombinant human cdc2 = recombinant human cdc2 (Homo sapiens, UniProt P06493); test: Binding of biotinylated Aβ peptides to recombinant human cdc2 coated plates (ELISA); conditions: biotinylated peptide 200 pM, 37° C. 4 hours
recombinant human cdc2, sequence (P06493 whole entry): as the sequence (P06493 whole entry) above
Procedure: (§3) After washing to remove unbound material, an alkaline phosphatase polymer-streptavidin conjugate (Sigma, Dorset, UK) was added and incubated at 37° C. for 2 hours.

[5] = target: T3, recombinant p34-cdc2/cyclin B1 (Homo sapiens, UniProt P06493); test: Phosphorylation of biotinylated Aβ peptides by recombinant p34-cdc2/cyclin B1 (32P incorporation); type: biochemical; conditions: 25 μM biotinylated peptide, 10 min at 30° C.
T3 construct: purchased Promega, UK
T3 sequence (P06493 whole entry): as above
T3 sequence (P14635 whole entry partner): as the sequence (P14635 whole entry) above
Source text: as §2

[6] = target: recombinant human cyclin B1 (Homo sapiens, UniProt P14635); test: Binding of biotinylated Aβ peptides to cyclin B1 coated plates (ELISA); conditions: biotinylated peptide
recombinant human cyclin B1, sequence (P14635 whole entry): as above
Procedure: as §3
Cyclins are co-factors for cdc2 which are required for enzyme activity. These proteins also contain substrate recognition sequences which may play a role in the recruitment of substrate molecules to the active cdc2/cyclin complex. The recombinant cdc2/cyclin enzyme complex used in the above phosphorylation experiments contained cyclin B1. […] Binding assays as described above using cyclin B1 coated plates were carried out.

C[C@H](NC(=O)CN)C(=O)N1CCC[C@H]1C(=O)N[C@@H](CC(N)=O)C(=O)N[C@@H](Cc1ccc(O)cc1)C(=O)N[C@@H](Cc1ccc(O)cc1)C(=O)N1CCC[C@H]1C(=O)N[C@@H](CC(N)=O)C(=O)N[C@@H](CO)C(=O)N[C@@H](Cc1ccccc1)C(=O)O [CAβBP]
binding of biotinylated Aβ 25-35 (biotinylated Aβ 25-35): specifically bound | block of the cytotoxicity of Aβ 1-42 [1]: able to block | block of the cytotoxicity of Aβ fragments containing residues 31-35 [1]: able to block | binding of biotinylated Aβ 1-42 (biotinylated Aβ 1-42): specifically bound | block of the inhibition of catalase enzyme activity by Aβ 1-42 [2]: able to block | block of the inhibition of catalase enzyme activity by Aβ fragments containing residues 31-35 [2]: able to block

CC(C)C[C@H](NC(=O)[C@H](CC(N)=O)NC(=O)[C@H](Cc1ccc(O)cc1)NC(=O)[C@@H](NC(=O)[C@@H](N)CCCCN)[C@@H](C)O)C(=O)N[C@@H](CCCCN)C(=O)N[C@@H](CCCCN)C(=O)NCC(=O)N[C@@H](CCC(N)=O)C(=O)N[C@H](C(=O)O)[C@@H](C)O [EAβBP] (H-KTYNLKKGQT-OH; N-terminus and C-terminus assumed)
block of the cytotoxicity of Aβ 1-42 [1]: able to block | block of the cytotoxicity of Aβ fragments containing residues 17-35 [1]: able to block | binding of biotinylated Aβ 1-42 (biotinylated Aβ 1-42): specifically bound | binding of biotinylated Aβ 12-28 (biotinylated Aβ 12-28): specifically bound | block of the inhibition of catalase enzyme activity by Aβ 1-42 [2]: no effect

Aβ 17-35 S26A: Aβ 17-35 in which the serine residue for phosphorylation has been mutated to an alanine residue (LVFFAEDVGANKGAIIGLM; Amyloid-beta protein 42; UniProt P05067 688-706, looked up, variant S26A)
effect on MTT utilisation (Human NT-2 neurons [3]): no effect | levels of immunoreactive Aβ (ir-Aβ) in exposed cells (Human NT-2 neurons [4]): increased levels | ir-pSAβ in extracts of exposed cells (Human NT-2 neurons [4]): no difference to control cells

Aβ 17-35 pS26: Aβ 17-35 peptide with a phosphorylated serine residue (LVFFAEDVG[pS]NKGAIIGLM; UniProt P05067 688-706, looked up, fragment)
potency in MTT reduction compared with the non-phosphorylated peptide (Human NT-2 neurons [3]): significantly more potent | effect on MTT utilisation (Human NT-2 neurons [3]): dose dependent reduction | levels of immunoreactive Aβ (ir-Aβ) in exposed cells (Human NT-2 neurons [4]): increased levels | ir-pSAβ in extracts of exposed cells (Human NT-2 neurons [4]): no difference to control cells

Aβ 17-35: Aβ fragment 17-35 containing serine 26, ERAB binding and cytotoxic domains (LVFFAEDVGSNKGAIIGLM)
effect on MTT utilisation (Human NT-2 neurons [3]): dose dependent reduction | levels of immunoreactive Aβ (ir-Aβ) in exposed cells (Human NT-2 neurons [4]): increased levels | ir-pSAβ in extracts of exposed cells (Human NT-2 neurons [4]): increased amounts | effect on phosphorylation of the H1 peptide by cdc2/cyclin B1 (cdc2/cyclin B1): increased

Aβ 25-35: functional neurotoxic domain fragment of Aβ (GSNKGAIIGLM)
binding to human cdc2 (recombinant human cdc2): bound | phosphorylation by cdc2 (incorporation of 32P from γ32P-ATP) [5]: incorporated | binding to cyclin B1 [6]: bound | effect on phosphorylation of the H1 peptide by cdc2/cyclin B1 (cdc2/cyclin B1): increased

Aβ 31-35: shortest cytotoxic form of Aβ (IIGLM)
effect on phosphorylation of the H1 peptide by cdc2/cyclin B1 (cdc2/cyclin B1): increased
